Measured values: patent publication US12629383B2, “Cannabinoid compositions with high solubility and bioavailability” (priority 2020, dated 2026)
Read-outs that look alike come from different tables or passages of the source.

How the values were obtained:
[1] = Dissolution study, USP type II apparatus, HPLC quantification of CBD released; assay type: physicochemical; conditions: 900 ml pH 6.8 phosphate buffer
Experimental: Dissolution study was performed in 900 ml volume with a USP type II apparatus at pH 6.8 phosphate buffer. HPLC analysis (as per below) was used to quantify the amount of CBD released at each time point.
• Method: High Performance Liquid Chromatography (HPLC); Shimadzu LC-2040 3D Nexera-i • Wave lenght: 220 nm • Column 100 mm*4.6 mm; 5 μm C18 (InertSustain) • Column Temperature: 25° C. • AutoSampler Temperature: 5° C. • Injection Volume: 5 μL • Flow rate: 1.0 mL/min • Mobile Phase: Methanol:Water (85:[…]) • Diluent: Methanol • Run Time: Cannabidiol=3.7 min

[2] = Animal study (pharmacokinetics), gavage, CBD blood concentration by HPLC; assay type: in vivo; conditions: rat
Experimental: According to the results of the dissolution study, compositions were prepared by adhering to the ratios of the present invention.
6 rats weighing 250+/−20 grams were used per each study group and a total of 5 groups were used. The compositions were administered by gavage at the human dose equivalent of 40 mg CBD per composition.
The results were analyzed by blood draws at each of the time points over an 8 hour period. An HPLC system was used to determine the blood concentration of CBD at the specified time points. The blood concentrations were given as (μg/mL)
The average CBD blood concentration of the groups were used to determine the pharmacokinetic parameters of Cmax, AUC and Tmax.

C=C(C)[C@@H]1CCC(C)=C[C@H]1c1c(O)cc(CCCCC)cc1O [CBD API, Cannabidiol]
% CBD API Released ([1]; 5 min): 1,89%
% CBD API Released ([1]; 10 min): 1,89%
% CBD API Released ([1]; 15 min): 2,05%
% CBD API Released ([1]; 30 min): 2%
% CBD API Released ([1]; 60 min): 2,01%
% CBD API Released ([1]; 120 min): 1,97%
% CBD API Released ([1]; 180 min): 2,2%
% CBD API Released ([1]; 240 min): 2,32%
concentration at 0 h ([2]; blood, oral, 40 mg CBD (human dose equivalent), hour 0, rats, human dose equivalent of 40 mg CBD, group average): 0 ng/mL
concentration at […] ([2]; blood, oral, 40 mg CBD (human dose equivalent), hour 0.083, rats, human dose equivalent of 40 mg CBD, group average): 8 ng/mL
concentration at 0.25 h ([2]; blood, oral, 40 mg CBD (human dose equivalent), hour 0.25, rats, human dose equivalent of 40 mg CBD, group average): 11 ng/mL
concentration at 0.5 h ([2]; blood, oral, 40 mg CBD (human dose equivalent), hour 0.5, rats, human dose equivalent of 40 mg CBD, group average): 15 ng/mL
concentration at 1 h ([2]; blood, oral, 40 mg CBD (human dose equivalent), hour 1, rats, human dose equivalent of 40 mg CBD, group average): 13 ng/mL
concentration at 2 h ([2]; blood, oral, 40 mg CBD (human dose equivalent), hour 2, rats, human dose equivalent of 40 mg CBD, group average): 11 ng/mL
concentration at 4 h ([2]; blood, oral, 40 mg CBD (human dose equivalent), hour 4, rats, human dose equivalent of 40 mg CBD, group average): 8 ng/mL
concentration at 8 h ([2]; blood, oral, 40 mg CBD (human dose equivalent), hour 8, rats, human dose equivalent of 40 mg CBD, group average): 6 ng/mL
Tmax ([2]; blood, po, 40 mg CBD (human dose equivalent), rats, read-out: Tmax after administration (converted)): 30 min
AUC(0-t) ([2]; blood, po, rats, human dose equivalent of 40 mg CBD): 71 ng·h/mL
Tmax ([2]; blood, po, rats, human dose equivalent of 40 mg CBD, read-out: Tmax): 30 min
Cmax ([2]; po, rats, human dose equivalent of 40 mg CBD, from average blood concentration): 15 ng/mL
